Results reported in US8461085B2, “Bioherbicide from Festuca spp” (Cornell Research Foundation, Inc., priority 2005, dated 2013).
Entries after “also recorded” stand apart in the source; their conditions may differ. Where two headings read alike, the source gives them in different places.

Experiments:
[1] = test system: lettuce seedlings (Lactuca sativa L.); assay: Petri-dish bioassay, radicle elongation in lettuce seedlings; format: in vivo; conditions: for IC50: Lactuca sativa
[2] = test system: fine leaf fescue seedlings cultivar Intrigue; assay: Autotoxicity Petri dish bioassay with fine leaf fescue seeds; format: in vivo, Festuca rubra L. Subsp. Commutata Gaud.; conditions: 20 μM to 160 μM
[3] = test system: selected monocot and dicot plants; assay: General phytotoxicity Petri dish bioassay, weed and crop species taken together; format: in vivo
Protocol: Using the Petri dish bioassay described above, various weed and crop species were tested for their susceptibility to m-tyrosine. Concentrations evaluated were 10, 20, 40, 80, 160, and 320 μM m-tyrosine dissolved in water.
(§1) m-Tyrosine activity was bioassayed using selected weed and crop species. Growth inhibition as measured by radicle elongation was evaluated in dandelion (Taraxacum officinale Weber in Weggers.), large crabgrass (Digitaria sanguinalis (L.) Scop.), velvetleaf (Abutilon theophrasti Medicus), black medic (Medicago lupulina L.), curly cress (Lepidium sativum L.), bamyardgrass (Echinochloa crus-galli.(L.) Beauv.), lettuce (Lactuca sativa L.), purslane (Portulaca oleracea L.), annual bluegrass (Poa annua L.), birdsfoot trefoil (Lotus corniculatus L.), broadleaf plantain (Plantago major L.), mouseear chickweed (Cerastium vulgatum L.), common chickweed (Stellaria media (L.) Vill.), white clover (Trifolium repens L.), wheat (Triticum aestivum L.), tomato (Lycopersicon esculentum var. esculentum P. Mill.), tobacco (Nicotiana tobacum L.), and sorghum sudangrass hybrid (Sorghum bicolor x Sudanese). Weeds were purchased from HerbiSeeds, England, tomato seeds were purchased from Agway (Ithaca N.Y.), and wheat, sudex and tobacco where donated by Pioneer Seeds (Johnson, Iowa). Seeds were sterilized by a water: ethanol mixture (1:1) for one minute and rinsed three times thoroughly in distilled water. The simple phytotoxicity bioassay utilized consisted of the evaluation of radicle length of ten sterilized seeds of each weed/crop deposited on a filter paper containing the appropriate m-tyrosine test solution in 4.5 cm Petri dishes. The amino acid analog, m-tyrosine was purchased from Sigma and formulated at concentrations of 0, 20, 40, 80, 160 and 320 μM by initially dissolving in aqueous solutions. A 1000 μL aliquot of the appropriate test solution was added to individual Petri dishes lined with Whatman No. 1 filter paper. Control dishes received 1000 μL of water. After seeds were placed on moistened filter paper, Petri dishes were transferred to a controlled environment with a light regime of 45,33 photon m^−2 s^−1 and maintained at an average temperature of 25° C. for 7 days. At the end of the incubation period, radicle length was measured. Treatments were replicated three times, and the experiment for each plant species tested was repeated three times.

[4] = test system: Bacillus subtilis; assay: Antibacterial disc assay; format: cell-based
Protocol: m-Tyrosine was evaluated for its effect on several bacteria (Bacillus cereus, Bacillus subtilis, and Escherichia coli) grown on nutrient agar (Difco) plates (9 cm) and a fungal culture (Metarhizium anisopliae ([…].)) grown on potato dextrose agar (Difco) plates. These plates were spread with either 0.5 mL aliquots of a liquid bacterial culture grown for 18 h in nutrient broth or with 0.5 mL of a fungal spore suspension (1×10^6 spores/mL), and were allowed to dry for approximately 30 minutes. […] A disc moistened with 10 μl of water served as negative control, and positive controls consisted of discs spiked with ampicillin and tetracycline (5 μg). The plates were placed in an incubator at 25° C., and visually checked for zones of inhibition for up to four days. All experiments were performed in triplicate.

[5] = test system: Cress; assay: Weed and crop Petri dish bioassay, radicle length; format: in vivo, Lepidium sativum L.
Protocol: (§2) m-Tyrosine activity was bioassayed using selected weed and crop species. Growth inhibition as measured by radicle elongation was evaluated in dandelion (Taraxacum officinale Weber in […].), large crabgrass (Digitaria sanguinalis (L.) Scop.), velvetleaf (Abutilon theophrasti Medicus), black medic (Medicago lupulina L.), curly cress (Lepidium sativum L.), bamyardgrass (Echinochloa crus-galli.(L.) Beauv.), lettuce (Lactuca sativa L.), purslane (Portulaca oleracea L.), annual bluegrass (Poa annua L.), birdsfoot trefoil (Lotus corniculatus L.), broadleaf plantain (Plantago major L.), mouseear chickweed (Cerastium vulgatum L.), common chickweed (Stellaria media (L.) Vill.), white clover (Trifolium repens L.), wheat (Triticum aestivum L.), tomato (Lycopersicon esculentum var. esculentum P. Mill.), tobacco (Nicotiana tobacum L.), and sorghum sudangrass hybrid (Sorghum bicolor x Sudanese). Weeds were purchased from HerbiSeeds, England, tomato seeds were purchased from Agway (Ithaca N.Y.), and wheat, sudex and tobacco where donated by Pioneer Seeds (Johnson, Iowa). Seeds were sterilized by a water: ethanol mixture (1:1) for one minute and rinsed three times thoroughly in distilled water. […] At the end of the incubation period, radicle length was measured. […]

[6] = test system: Sudex; assay: Weed and crop Petri dish bioassay, radicle length; format: in vivo, Sorghum bicolor x Sudanese
Protocol: as §2

[7] = test system: Wheat; assay: Weed and crop Petri dish bioassay, radicle length; format: in vivo, Triticum aestivum L.
Protocol: as §2

[8] = test system: Arabidopsis; assay: Weed and crop Petri dish bioassay, radicle length; format: in vivo, Arabidopsis thaliana L.
[9] = test system: Dandelion; assay: Weed and crop Petri dish bioassay, radicle length; format: in vivo, Taraxacum officinale Weber in Weggers.
Protocol: as §1, with “[…].),” for “Weggers.),”, “The amino acid analog, m-tyrosine was purchased from Sigma and formulated at concentrations of 0, 20, 40, 80, 160 and 320 μM by initially dissolving in aqueous solutions.” left out, “m^-2 s^-1” for “m^−2 s^−1”

[10] = test system: Birdsfoot trefoil; assay: Weed and crop Petri dish bioassay, radicle length; format: in vivo, Lotus corniculatus L.
Protocol: as §2

[11] = test system: Annual bluegrass; assay: Weed and crop Petri dish bioassay, radicle length; format: in vivo, Poa annua L.
Protocol: as §1, with “[…].),” for “Weggers.),”, “The amino acid analog, m-tyrosine was purchased from Sigma and formulated at concentrations of 0, 20, 40, 80, 160 and 320 μM by initially dissolving in aqueous solutions.” left out, “m^-2 s^-1” for “m^−2 s^−1”

[12] = test system: Broadleaf Plantain; assay: Weed and crop Petri dish bioassay, radicle length; format: in vivo, Plantago major L.
Protocol: as §2

[13] = test system: Black Medic; assay: Weed and crop Petri dish bioassay, radicle length; format: in vivo, Medicago lupulina L.
Protocol: as §2

[14] = test system: Common Chickweed; assay: Weed and crop Petri dish bioassay, radicle length; format: in vivo, Stellaria media (L.) Vill.
Protocol: as §2

## N[C@@H](Cc1cccc(O)c1)C(=O)O [m-tyrosine, 3-hydroxyphenylalanine]
[1]; 20 μM loaded on filter paper
  reduction of root elongation of lettuce seedlings: 64%
[1]; lettuce seedlings at 72 h, read-out: concentration for 50% reduction of root growth
  IC50: 17 µM
[1]; soil-less assay, read-out: I50, 50% inhibition of root growth of lettuce
  IC50: ~8 µM
[1]; solutions added to pre-germinated seeds
  root elongation of pre-germinated lettuce seeds: strongly inhibited
[2]
  root elongation of fescue seedlings: not affected; also recorded: No inhibition
[3]; in vivo
  effect on shoot elongation: inhibitory to shoot elongation
[3]; numerous seedling indicators
  effect on seed germination: did not affect seed germination per se
[3]; range over all plants exposed, read-out: concentration required to observe 50% inhibition of radicle elongation
  IC50: 10 to 260 µM
[3]; range over other species evaluated (apart from mouseear chickweed), read-out: concentration for 50% inhibition of radicle elongation
  IC50: 14 to 253 µM
[4]
  growth inhibition: not inhibited
[5]
  I10: 15 µM
[5]; Lepidium sativum, read-out: I50
  IC50: 23 µM
[6]
  I10: 50 µM
[6]; Sorghum bicolor, read-out: I50
  IC50: 151 µM
[7]
  I10: 80 µM
[7]; Triticum aestivum, read-out: I50
  IC50: 157 µM
[8]
  I10: 6 µM
  I100: 50 µM
[8]; Arabidopsis thaliana, read-out: I50
  IC50: 15 µM
[9]
  I10: 10 µM
  I100: 160 µM
[9]; Taraxacum officinale, read-out: I50
  IC50: 39 µM
[10]
  I10: 20 µM
[10]; Lotus corniculatus, read-out: I50
  IC50: 42 µM
[11]
  I10: 25 µM
  I100: 320 µM
[11]; Poa annua, read-out: I50
  IC50: 47 µM
[12]
  I10: 30 µM
[12]; Plantago major, read-out: I50
  IC50: 72 µM
[13]
  I10: 40 µM
[13]; Medicago lupulina, read-out: I50
  IC50: 84 µM
[14]
  I10: 80 µM
  I100: 320 µM
